From patent US20180289689A1, “USE OF CCR5 ANTAGONISTS ALONE OR IN COMBINATION THERAPY FOR THE TREATMENT OF CANCER” (RUPRECHT-KARLS-UNIVERSITÄT HEIDELBERG, priority 2014, published 2018)

Experiments:
[1] = test system: colorectal cancer patients with hepatic metastases; experiment: MARACON-001 phase I trial, Maraviroc monotherapy; format: in vivo, human; conditions: for Objective response (RECIST)/ other responses: Patient 4, colorectal cancer (metastatic: lung and liver), monotherapy
Description: Clinical trial. A trial in colorectal cancer patients with hepatic metastases was initiated. […] In the trial, patients receive Maraviroc daily for two months. Safety and feasibility are the primary endpoints of this ongoing trial. The trial is being conducted according to the Declaration of Helsinki and relevant International Conference on Harmonization Good Clinical Practice guidelines and with approval from the ethics committee of the University of Heidelberg. […] All provided written informed consent before participating in this study. The overall workflow of the trial is depicted in FIG. 2.
Assessment of proliferation in histology samples. Briefly cryo sections were fixed with 4% paraformaldehyde (PFA, Sigma Aldrich, Germany). The sections were blocked with 10% normal goat serum (Vector, USA). […] The slides were incubated with a secondary antibody (rabbit-anti-mouse IgG, Bond Polymer Refine Detection System, Leica, Germany) for 8 minutes at room temperature. Further amplification of the signal was achieved through incubation with a third antibody, conjugated with horse radish peroxidase and coupled to dextrane molecules in large numbers, for 8 minutes at room temperature (Poly-HRP-mouse-anti-rabbit IgG, Bond Polymer Refine Detection System, Leica, Germany). The antigen detection was performed by a color reaction with 3,3-di-amino-benzidine (DAB chromogen, Bond Polymer Refine Detection System, Leica, Germany). The sections were counterstained with hematoxylin (Bond Polymer Refine Detection System, Leica, Germany) and mounted with Aquatex (Merck, Germany). Assessment was performed with the Visiomorph Software Package (Visiopharm, Denmark) to quantify positive tumor cells.

[2] = test system: colorectal cancer liver metastases; experiment: Tumor explant model from freshly resected colorectal cancer liver metastases; format: cell-based, human; conditions: FIG. 1
Description: Tumor explant models. Tumor explant models were generated from freshly resected colorectal cancer liver metastases. Explanted tissue specimens were cut into three equal parts, placed in unconditioned medium and either treated with DMSO or Maraviroc (in DMSO) or without any addition. The explants were then harvested and subjected to histological analyses (see FIG. 1) and multiplex protein analysis (see FIG. 3).

## Cc1nnc(C(C)C)n1[C@@H]1C[C@H]2CC[C@@H](C1)N2CC[C@H](NC(=O)C1CCC(F)(F)CC1)c1ccccc1 [Maraviroc, 4,4-difluoro-N-{(1S)-3-[3-(3-isopropyl-5-methyl-4H-1,2,4-triazol-4-yl)-8-azabicyclo[3.2.1]oct-8-yl]-1-phenylpropyl}cyclohexanecarboxamide]
[1]; Maraviroc 300 mg/bid, second biopsy after 8-10 days
  tumor cell death in patients (biopsies): tumor cell death
[1]; liver
  Objective response (RECIST)/ other responses: −10% (liver)
[1]; lung
  Objective response (RECIST)/ other responses: −50% (lung),
[1]; before vs after therapy, percentage of necrotic area of reference lesion, FIG. 5
  radiologically measured area of necrosis of liver metastases: increase in necrotic area
[1]; before vs under treatment (8-10 days, second biopsy), FIG. 4
  proliferation activity (Ki67 percentage) of tumor cells: Reductions
[1]; day 0 (pretreatment) vs day 9 of treatment, FIG. 3
  key cytokines for tumor growth, chemotherapy resistance or angiogenesis: Marked Changes
[1]; patients
  tolerability: well-tolerated
[1]; patients, so far
  side effects: does not have significant side effects
[2]; explants treated with Maraviroc (in DMSO)
  tumor cell death upon inhibition of CCR5: clear tumor cell death
[2]; explants treated with Maraviroc
  effects in the adjacent liver: no effects
[2]; treated section vs untreated control section
  histology of treated section (hemalaun counterstaining): Large areas of necrosis and only few remaining tumor cells
